Publication doi:10.1101/2024.10.07.617055v4 (biorxiv, 2026)
Where two headings read alike, the source gives them in different places.

Experiments:
6H5L_RA1 = test: retro-aldol fluorescence assay; format: biochemical, synthetic construct; conditions: 50 mM sodium phosphate, 150 mM NaCl, 7.5% DMSO, pH 8, 29 °C
6H5L [1] = test: retro-aldol fluorescence assay; format: biochemical, synthetic construct; conditions: 50 mM sodium phosphate, 150 mM NaCl, 7.5% DMSO, pH 8, 29 °C
6H5L_Top = test: retro-aldol fluorescence assay; format: biochemical, synthetic construct; conditions: 50 mM sodium phosphate, 150 mM NaCl, 7.5% DMSO, pH 8, 29 °C
6H5L_RA2 = test: retro-aldol fluorescence assay; format: biochemical, synthetic construct; conditions: 50 mM sodium phosphate, 150 mM NaCl, 7.5% DMSO, pH 8, 29 °C
6H5L [2] = conditions: 6H5L_K223; 50 mM sodium phosphate, 150 mM NaCl, 7.5% DMSO, pH 8, 29 °C

Compound: COc1ccc2cc(C(O)CC(C)=O)ccc2c1 (racemic) [compound 3, 4-hydroxy-4-(6-methoxy-2-naphthyl)-2-butanone]
- Km (6H5L_RA1): 1040 ± 128 µM
- Km (6H5L [1]): 371 ± 62 µM
- Km (6H5L_Top): 453 ± 49.3 µM
- Km (6H5L_RA2): 1550 ± 225 µM
- Km (6H5L [2]): 967 ± 211 µM
